Format in all cases: binding
The target in one assay is T1, PI3K delta (Homo sapiens, UniProt O00329).
T1 construct: endogenous in cells; host or cells: MOLT-4 (ATCC CRL-1582) cell lysate
As to the kind of experiment: Drug pulldown with immobilized phenylthiazole ligand 1, Western blot detection. To be noted: MOLT-4 cell lysate. Here is the method:
(§1) As biological material a cell lysate prepared from MOLT-4 cells was used. The drug pulldown experiment was performed as described in Example 2 with lysate samples containing 50 mg of protein. Captured proteins were eluted with DMSO containing buffer (lane 1), 100 μM of free phenylthiazole ligand 1 or SDS sample buffer (lane 3). The eluted samples were separated on SDS-polyacrylamide gels and transferred to membranes. The blots were first incubated with specific antibodies directed against PI3K gamma (FIG. 2A) and PI3K delta (FIG. 2B). Secondary detection antibodies labeled with fluorescent dyes for detection were used with the Odyssey infrared imaging system. Lane 1: DMSO elution control; lane 2: elution with 100 μM free phenylthiazole ligand 1; lane 3: SDS elution. […]
(§2) For Western blot analysis bound proteins were eluted from the affinity matrix and subsequently separated by SDS-Polyacrylamide gel elecrophoresis. PI3K gamma and PI3K delta were detected with specific antibodies (FIG. 2).
(§3) MOLT-4 cells were homogenized in a Potter S homogenizer in lysis buffer: 50 mM Tris-HCl, 0.8% NP40, 5% glycerol, 150 mM NaCl, 1.5 mM MgCl2, 25 mM NaF, 1 mM sodium vanadate, 1 mM DTT, pH 7.5. […] The supernatant was transferred again to a fresh 50 ml falcon tube, the protein concentration was determined by a Bradford assay (BioRad) and samples containing 50 mg of protein per aliquot were prepared. […]
A general note: In western blotting, separated proteins are transferred to a membrane and probed.

The target of a further assay is T2, PI3K gamma (Homo sapiens, UniProt P48736).
T2 construct: PI3K gamma protein was captured by immobilized phenylthiazole ligand 1 from MOLT-4 cell lysate; endogenous in cells; host or cells: MOLT-4 (ATCC CRL-1582) cell lysate
The description is as above. Conditions: MOLT-4 cell lysate. As to the method:
as §1, §2, §3

The target of the next assay is T3, ATM (Homo sapiens, UniProt Q13315).
T3 construct: with a 1:1 mixture of Jurkat and Ramos cell lysate sample containing 50 mg of protein; endogenous in cells; host or cells: 1:1 mixture of Jurkat and Ramos cell lysates
The assay can be described thus: Drug pulldown with immobilized phenylthiazole ligand 1, mass spectrometry analysis. Conditions: 1:1 mixture of Jurkat and Ramos cell lysate. An excerpt:
(§4) A protein gel after staining with Coomassie blue is shown. The indicated gel areas were cut out as gel slices and proteins were subjected to analysis by mass spectrometry. […] Proteins bound to immobilized phenylthiazole ligand 1 were eluted with SDS sample buffer and separated by SDS-polyacrylamide gel electrophoresis (SDS-PAGE). The following proteins were identified in this experiment: DNA-PK, ATM, and mTOR. […] Beads were collected, transfered to Mobicol-columns (MoBiTech 10055) and washed with 10 ml lysis buffer containing 0.5% NP40 detergent, followed by 5 ml lysis buffer with 0.25% detergent. […] Proteins were then separated by SDS-Polyacrylamide electrophoresis (SDS-PAGE). Gel-separated proteins were reduced, alkylated and digested in gel essentially following the procedure described by Shevchenko et al., 1996, Anal. Chem. 68:850-858. Briefly, gel-separated proteins were excised from the gel using a clean scalpel, reduced using 10 mM DTT (in 5 mM ammonium bicarbonate, 54° C., 45 min) and subsequently alkylated with 55 mM iodoacetamid (in 5 mM ammonium bicarbonate) at room temperature in the dark (30 minutes). Reduced and alkylated proteins were digested in gel with porcine trypsin (Promega) at a protease concentration of 12.5 ng/μl in 5 mM ammonium bicarbonate. Digestion was allowed to proceed for 4 hours at 37° C. and the reaction was subsequently stopped using 5 μl 5% formic acid. Gel plugs were extracted twice with 20 μl 1% TFA and pooled with acidified digest supernatants. […] Peptide samples were injected into a nano LC system (CapLC, Waters or Ultimate, Dionex) which was directly coupled either to a quadrupole TOF (QTOF2, QTOF Ultima, QTOF Micro, Micromass) or ion trap (LCQ Deca XP) mass spectrometer. […] Proteins were identified by correlating the measured peptide mass and fragmentation data with the same data computed from the entries in the database using the software tool Mascot (Matrix Science; Perkins et al., 1999. Probability-based protein identification by searching sequence databases using mass spectrometry data. Electrophoresis 20, 3551-3567). […]

Another assay deals with T4, DNA-PK (Homo sapiens, UniProt P78527).
T4 construct: with a 1:1 mixture of Jurkat and Ramos cell lysate sample containing 50 mg of protein; endogenous in cells; host or cells: 1:1 mixture of Jurkat and Ramos cell lysates
The assay is described as above. To be noted: 1:1 mixture of Jurkat and Ramos cell lysate.
Excerpt: as §4

A further assay has as its target T5, mTOR (Homo sapiens, UniProt P42345).
T5 construct: with a 1:1 mixture of Jurkat and Ramos cell lysate sample containing 50 mg of protein; endogenous in cells; host or cells: 1:1 mixture of Jurkat and Ramos cell lysates
The assay is described as above. To be noted: 1:1 mixture of Jurkat and Ramos cell lysate.
Excerpt: as §4

T2 sequence (P48736 whole entry): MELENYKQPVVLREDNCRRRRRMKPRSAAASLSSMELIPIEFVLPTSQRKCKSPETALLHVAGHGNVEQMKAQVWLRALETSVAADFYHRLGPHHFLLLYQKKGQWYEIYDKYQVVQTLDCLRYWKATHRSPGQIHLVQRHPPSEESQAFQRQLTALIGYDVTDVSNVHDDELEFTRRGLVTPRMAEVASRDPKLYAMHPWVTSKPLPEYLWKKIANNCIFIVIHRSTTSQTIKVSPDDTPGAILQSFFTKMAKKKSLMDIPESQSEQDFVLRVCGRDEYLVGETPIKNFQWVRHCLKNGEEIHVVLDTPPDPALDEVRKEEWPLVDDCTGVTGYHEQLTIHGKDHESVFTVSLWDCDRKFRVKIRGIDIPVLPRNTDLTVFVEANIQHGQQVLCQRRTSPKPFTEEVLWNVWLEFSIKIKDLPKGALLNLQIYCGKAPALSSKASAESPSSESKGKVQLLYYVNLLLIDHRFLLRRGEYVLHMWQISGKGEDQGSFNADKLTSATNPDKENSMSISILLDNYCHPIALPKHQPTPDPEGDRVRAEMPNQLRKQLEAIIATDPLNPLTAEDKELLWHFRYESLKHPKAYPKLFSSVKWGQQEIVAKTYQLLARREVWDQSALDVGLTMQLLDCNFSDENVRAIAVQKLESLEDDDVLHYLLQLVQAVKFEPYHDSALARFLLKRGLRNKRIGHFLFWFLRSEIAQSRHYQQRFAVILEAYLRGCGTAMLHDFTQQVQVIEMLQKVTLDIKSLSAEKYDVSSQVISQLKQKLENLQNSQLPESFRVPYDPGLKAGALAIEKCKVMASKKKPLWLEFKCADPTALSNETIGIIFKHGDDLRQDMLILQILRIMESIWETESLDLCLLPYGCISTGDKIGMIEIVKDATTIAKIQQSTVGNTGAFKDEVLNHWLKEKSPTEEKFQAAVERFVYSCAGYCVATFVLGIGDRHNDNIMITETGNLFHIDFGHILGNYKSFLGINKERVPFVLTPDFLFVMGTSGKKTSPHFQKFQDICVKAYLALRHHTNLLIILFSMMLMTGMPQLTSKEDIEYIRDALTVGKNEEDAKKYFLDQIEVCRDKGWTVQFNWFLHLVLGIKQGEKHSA
T1 sequence (O00329 whole entry): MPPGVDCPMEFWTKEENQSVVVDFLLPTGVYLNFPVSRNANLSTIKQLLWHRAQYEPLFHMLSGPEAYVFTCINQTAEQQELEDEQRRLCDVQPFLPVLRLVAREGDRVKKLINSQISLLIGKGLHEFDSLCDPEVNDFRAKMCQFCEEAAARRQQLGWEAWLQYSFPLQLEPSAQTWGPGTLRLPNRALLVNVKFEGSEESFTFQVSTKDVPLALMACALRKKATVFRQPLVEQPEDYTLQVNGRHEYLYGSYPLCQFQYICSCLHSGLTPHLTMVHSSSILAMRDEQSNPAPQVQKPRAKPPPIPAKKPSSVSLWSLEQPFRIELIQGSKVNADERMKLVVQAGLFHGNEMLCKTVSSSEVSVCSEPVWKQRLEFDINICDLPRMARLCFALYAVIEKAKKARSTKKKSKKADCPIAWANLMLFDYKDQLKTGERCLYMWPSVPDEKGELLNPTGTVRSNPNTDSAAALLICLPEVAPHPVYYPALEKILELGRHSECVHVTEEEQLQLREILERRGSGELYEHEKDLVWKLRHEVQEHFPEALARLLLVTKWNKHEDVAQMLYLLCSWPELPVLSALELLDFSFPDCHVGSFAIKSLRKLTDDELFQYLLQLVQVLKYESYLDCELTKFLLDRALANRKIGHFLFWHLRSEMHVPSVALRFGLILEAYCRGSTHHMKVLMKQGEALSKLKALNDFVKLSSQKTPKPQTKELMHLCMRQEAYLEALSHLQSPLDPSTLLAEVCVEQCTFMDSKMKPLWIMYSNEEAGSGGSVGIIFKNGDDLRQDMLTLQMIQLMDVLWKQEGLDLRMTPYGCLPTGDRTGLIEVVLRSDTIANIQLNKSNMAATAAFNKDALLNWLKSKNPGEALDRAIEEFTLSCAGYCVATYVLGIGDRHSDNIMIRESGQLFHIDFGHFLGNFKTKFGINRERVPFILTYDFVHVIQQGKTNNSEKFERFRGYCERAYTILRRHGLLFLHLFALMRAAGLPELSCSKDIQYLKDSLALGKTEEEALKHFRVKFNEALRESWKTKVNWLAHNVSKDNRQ
T1 sequence (P27986 whole entry partner): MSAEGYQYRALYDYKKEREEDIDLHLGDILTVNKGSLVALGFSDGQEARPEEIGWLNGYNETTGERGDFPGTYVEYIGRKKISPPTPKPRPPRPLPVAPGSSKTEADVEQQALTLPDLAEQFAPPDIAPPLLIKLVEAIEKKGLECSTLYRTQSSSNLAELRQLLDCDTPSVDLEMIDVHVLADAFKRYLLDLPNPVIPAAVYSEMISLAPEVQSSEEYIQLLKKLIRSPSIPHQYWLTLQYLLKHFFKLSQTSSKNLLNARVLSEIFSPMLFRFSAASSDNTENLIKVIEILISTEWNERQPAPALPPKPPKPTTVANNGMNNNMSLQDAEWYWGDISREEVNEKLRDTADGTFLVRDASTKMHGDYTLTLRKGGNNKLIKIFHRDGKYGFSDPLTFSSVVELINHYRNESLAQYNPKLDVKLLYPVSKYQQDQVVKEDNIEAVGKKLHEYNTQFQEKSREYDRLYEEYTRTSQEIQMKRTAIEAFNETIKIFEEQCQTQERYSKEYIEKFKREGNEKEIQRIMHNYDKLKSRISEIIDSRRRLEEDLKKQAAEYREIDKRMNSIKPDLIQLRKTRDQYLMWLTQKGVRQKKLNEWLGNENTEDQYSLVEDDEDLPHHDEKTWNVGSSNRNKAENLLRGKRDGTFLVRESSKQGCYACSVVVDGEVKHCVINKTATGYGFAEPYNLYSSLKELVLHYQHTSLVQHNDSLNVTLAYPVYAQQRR

On to `Cc1nc(NC(=O)CCOCCOCCOCCOCCN)sc1-c1ccc(Cl)c(S(C)(=O)=O)c1.Cl` [phenylthiazole ligand 1, 3-(2-{2-[2-(2-amino-ethoxy)-ethoxy]-ethoxy}-ethoxy)-N-[5-(4-chloro-3-methanesulfonyl-phenyl)-4-methyl-thiazol-2yl]-propionamide hydrochloride], for which the “capture (pulldown) of PI3K delta from cell lysate” value on PI3K delta is “captures (pulls down)”. Moreover, the “capture (pulldown) of PI3K gamma from cell lysate” value on PI3K gamma is listed as “captures (pulls down)”. In addition, the “ATM bound to immobilized ligand, identified by mass spectrometry” value at ATM is “identified”. Besides, the “DNA-PK bound to immobilized ligand, identified by mass spectrometry” value at DNA-PK is “identified”. Moreover, on mTOR, the “mTOR bound to immobilized ligand, identified by mass spectrometry” value is “identified”.

Values taken from patent US20110111972A1, “SELECTIVITY PROFILING OF PI3K INTERACTING MOLECULES AGAINST MULTIPLE TARGETS” (CELLZOME AG, priority 2008, published 2011).
